Where two headings read alike, the source gives them in different places.
Target: T1, Lin28 (Homo sapiens, UniProt Q9H9Z2)
T1 construct: gene LIN28A; recombinant, N-terminal GST tag; multimeric on pre-let-7
T1 sequence (Q9H9Z2 1-209): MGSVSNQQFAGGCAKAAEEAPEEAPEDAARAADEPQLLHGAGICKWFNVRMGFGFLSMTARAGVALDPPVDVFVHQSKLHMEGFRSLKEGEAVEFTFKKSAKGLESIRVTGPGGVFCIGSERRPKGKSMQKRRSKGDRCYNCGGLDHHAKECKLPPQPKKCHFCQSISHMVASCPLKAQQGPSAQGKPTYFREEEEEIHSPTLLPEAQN
Assay: fluorescence polarization displacement of fluorescein-labelled tpre-let-7g RNA
Format: binding

Row | SMILES | IC50 (read-out: IC50) [µM] | IC50 [µM]
1 | O=C(O)c1ccc2nc3c4c(O)ccc(O)c4c(=O)c(Cl)c-3oc2c1 [compound 14, SB/ZW/0065] | 4.71 ± 0.16 | 
2 | O=C(O)C1=CC(=C(c2ccc(O)c(C(=O)O)c2)c2ccc(O)c(C(=O)O)c2)C=CC1=O [compound 4, Aurintricarboxylic acid] | 1.18 ± 0.23 | 
3 | NC(Cc1cc(O)c(O)cc1O)C(=O)O (racemic) [compound 10, 6-hydroxy-DL-DOPA] |  | 7.05 ± 0.13
4 | Nc1c(S(=O)(=O)O)cc(Nc2ccc(S(=O)(=O)O)c(Nc3nc(Cl)nc(Cl)n3)c2)c2c1C(=O)c1ccccc1C2=O [11b, Reactive Blue 4] | 10.75 ± 0.1 | 

From article PMC5433426, “Identification of small molecule inhibitors of the Lin28-mediated blockage of pre-let-7g processing” (Organic & Biomolecular Chemistry, 2016)
